# Target: T1, Acyl-CoA: Cholesterol Acyltransferase (ACAT) (Rattus norvegicus, UniProt Q7TQM4)
# T1 construct: centrifuged at 105,000×g for 1 hour to pellet the microsomes; from tissue; host or cells: liver microsomes of male Sprague Dawley rats
# T1 sequence (Q7TQM4 1-524): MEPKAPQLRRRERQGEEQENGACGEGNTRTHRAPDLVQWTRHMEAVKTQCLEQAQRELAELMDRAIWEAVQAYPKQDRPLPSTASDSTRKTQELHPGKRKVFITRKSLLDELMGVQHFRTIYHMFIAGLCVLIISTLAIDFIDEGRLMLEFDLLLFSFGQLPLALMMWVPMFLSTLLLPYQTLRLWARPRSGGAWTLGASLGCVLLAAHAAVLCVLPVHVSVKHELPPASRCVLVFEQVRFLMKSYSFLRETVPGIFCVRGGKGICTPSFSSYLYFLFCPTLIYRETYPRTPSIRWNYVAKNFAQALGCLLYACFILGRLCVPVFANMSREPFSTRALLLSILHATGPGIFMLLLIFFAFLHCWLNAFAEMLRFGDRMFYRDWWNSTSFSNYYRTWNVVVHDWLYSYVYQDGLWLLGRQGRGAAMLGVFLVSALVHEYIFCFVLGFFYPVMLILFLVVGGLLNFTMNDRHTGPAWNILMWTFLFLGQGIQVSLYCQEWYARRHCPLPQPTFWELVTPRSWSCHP
# Assay: Inhibition of Acyl-CoA: Cholesterol Acyltransferase (ACAT) in Hepatic Microsomes (In Vitro Assay)
# Format: biochemical, rat (male Sprague Dawley)
# Settings: 75 μM 14C-oleoyl-CoA, pH 7.4, 37° C., 10 min, read-out: ACAT Inhibitory Activity (In Vitro) (IC50)
# Experimental: A. Assay of the Inhibition of Acyl-CoA: Cholesterol Acyltransferase (ACAT) in Hepatic Microsomes (In Vitro Assay)
# The ability of the compounds to inhibit ACAT, the enzyme responsible for the intracellular synthesis of cholesteryl esters, was tested as follows. Male Sprague Dawley rats weighing 150-300 g, were fed rat chow ad libitum. The animals were fasted for twenty-four hours prior to being euthanized by CO2. The livers were perfused in situ with 50 ml of cold 0.25 sucrose, excised, and homogenized in three volumes of 0.1M phosphate buffer, pH 7.4, that contained 0.5 mM EDTA (ethylenediamine-tetraacetic acid), 1.0 mM glutathione, 0.25M sucrose and […] leupeptin. Microsomes were obtained by differential centrifugation; the supernatant from an initial spin at 15,000×g for 15 minutes was centrifuged at 105,000×g for 1 hour to pellet the microsomes. The microsomes were suspended in homogenization buffer, reisolated by centrifugation, and stored at -70° C. Microsomes were used within one month of preparation.
# The control assay in a final volume of 200 μl consisted of 200 μg of microsomal protein, 75 μM ^14 C-oleoyl-CoA (10,000 dpm/nmol) in 0.1M phosphate, pH 7.4, that contained 1 mM glutathione. Compounds were added in 5 μl of DMSO (dimethyl sulfoxide) and additional controls were run with DMSO only. All components, except the oleoyl-CoA, were preincubated for 15 min. at 37° C. prior to the initiation of the reaction by the addition of oleoyl-CoA. The assay was terminated after 10 min by the addition of 4 ml of chloroform:methanol (2:1, v/v). 20,000 dpm of ^3 H-cholesteryl oleate and 10 μg of unlabeled cholesteryl oleate and oleic acid were added as an internal standard and carriers, respectively. After allowing 10 min. for lipid extraction, the samples were centrifuged at 1,000×g for 10 min to separate the solvent layers. The chloroform layer containing the neutral lipids was spotted onto a Baker SI250-Pa silica gel TLC plate and the plate developed using a hexane:diethyl ether:acetic acid (170:30:1) v/v/v) mobile phase. The lipids were visualized by their interaction with iodine vapor and the cholesteryl ester spot was scraped into a scintillation vial and counted. The specific activity of ACAT in the control incubation averaged 260 pmol/min/mg microsomal protein. The data obtained are expressed as the concentration at which ACAT activity is inhibited by 50% (IC50).
structure (smiles),measurement,value
"COc1ccc(SC(C(=O)Nc2c(SC)cc(C)nc2SC)c2ccc(C(F)(F)F)cc2)cc1 (stereo not drawn) [Example 394, N-[2,4-bis(methylthio)-6-methyl-3-pyridyl]-α-(4-methoxy-phenylthio)-4-trifluoromethyl-phenylacetamide]",IC50,< 1000 nM
"CCCCCCSC(C(=O)Nc1c(SC)cc(C)nc1SC)c1ccc(C(C)C)cc1 (stereo not drawn) [Example 403, N-[2,4-bis(methylthio)-6-methyl-3-pyridyl]-α-hexylthio-4-isopropylphenylacetamide]",IC50,< 1000 nM
"CSc1cc(C)nc(SC)c1NC(=O)C(SCc1ccc(Cl)cc1)c1ccc(C(C)C)cc1 (stereo not drawn) [Example 410, N-[2,4-bis(methylthio)-6-methyl-3-pyridyl]-α-(4-chloro-benzylthio)-4-isopropylphenylacetamide]",IC50,< 1000 nM
"CCCCOc1ccc(CSC(C(=O)Nc2c(SC)cc(C)nc2SC)c2ccc(C(C)C)cc2)cc1 (stereo not drawn) [Example 411, N-[2,4-bis(methylthio)-6-methyl-3-pyridyl]-α-(4-butoxy-benzylthio)-4-isopropylphenylacetamide]",IC50,< 1000 nM
"CCCCCCSC(C(=O)Nc1c(SC)cc(C)nc1SC)c1ccc(C(C)(C)C)cc1 (stereo not drawn) [Example 431, N-[2,4-bis(methylthio)-6-methyl-3-pyridyl]-α-hexylthio-4-tert-butylphenylacetamide]",IC50,< 1000 nM
"CSc1cc(C)nc(SC)c1NC(=O)C(SCc1ccccc1)c1ccc(C(C)(C)C)cc1 (stereo not drawn) [Example 435, N-[2,4-bis(methylthio)-6-methyl-3-pyridyl]-α-benzylthio-4-tert-butylphenylacetamide]",IC50,< 1000 nM
"CSc1cc(C)nc(SC)c1NC(=O)C(SCc1ccc(Cl)cc1)c1ccc(C(C)(C)C)cc1 (stereo not drawn) [Example 437, N-[2,4-bis(methylthio)-6-methyl-3-pyridyl]-α-(4-chloro-benzylthio)-4-tert-butylphenylacetamide]",IC50,< 1000 nM
"CSc1cc(C)nc(SC)c1NC(=O)C(SCc1ccc(C(C)(C)C)cc1)c1ccc(C(C)(C)C)cc1 (stereo not drawn) [Example 439, N-[2,4-bis(methylthio)-6-methyl-3-pyridyl]-α-(4-tert-butyl-benzylthio)-4-tert-butylphenylacetamide]",IC50,< 1000 nM
"CSc1cc(C)nc(SC)c1NC(=O)C(SCc1ccccc1)c1ccc(-c2ccccc2)cc1 (stereo not drawn) [Example 463, N-[2,4-bis(methylthio)-6-methyl-3-pyridyl]-α-benzylthio-4-biphenylacetamide]",IC50,< 1000 nM
"CSc1cc(C)nc(SC)c1NC(=O)C(SCc1ccc(F)cc1)c1ccc(-c2ccccc2)cc1 (stereo not drawn) [Example 464, N-[2,4-bis(methylthio)-6-methyl-3-pyridyl]-α-(4-fluoro-benzylthio)-4-biphenylacetamide]",IC50,< 1000 nM
"COc1ccc(CSC(C(=O)Nc2c(SC)cc(C)nc2SC)c2ccc(-c3ccccc3)cc2)cc1 (stereo not drawn) [Example 465, N-[2,4-bis(methylthio)-6-methyl-3-pyridyl]-α-(4-methoxy-benzylthio)-4-biphenylacetamide]",IC50,< 1000 nM
"CCCCOc1ccc(CSC(C(=O)Nc2c(SC)cc(C)nc2SC)c2ccc(-c3ccccc3)cc2)cc1 (stereo not drawn) [Example 467, N-[2,4-bis(methylthio)-6-methyl-3-pyridyl]-α-(4-butoxy-benzylthio)-4-biphenylacetamide]",IC50,< 1000 nM
"CSc1cc(C)nc(SC)c1NC(=O)C(SCc1cccnc1)c1ccc(-c2ccccc2)cc1 (stereo not drawn) [Example 484, N-[2,4-bis(methylthio)-6-methyl-3-pyridyl]-α-(3-pyridyl-methylthio)-4-biphenylacetamide]",IC50,< 1000 nM
"CCCCCCSC(C(=O)Nc1c(SC)cc(C)nc1SC)c1ccc([N+](=O)[O-])cc1 (stereo not drawn) [Example 487, N-[2,4-bis(methylthio)-6-methyl-3-pyridyl]-α-hexylthio-4-nitro-phenylacetamide]",IC50,< 1000 nM
"CCCCCCSC(C(=O)Nc1c(SC)cc(C)nc1SC)c1ccc2c(c1)OCO2 (stereo not drawn) [Example 515, N-[2,4-bis(methylthio)-6-methyl-3-pyridyl]-α-hexylthio-3,4-methylenedioxyphenylacetamide]",IC50,< 1000 nM

# From patent US5583147A, “Amides for the treatment of atherosclerosis” (The Dupont Merck Pharmaceutical Company, priority 1994, dated 1996)
